One block for each compound: values may come before it. Active and inactive are the calls of the source. The calls are words filed in the database; no cut-off is given here.
Columns and labels:
[1] = target: T1, Exportin-1 (Homo sapiens, UniProt O14980); experiment: Inhibition of CRM1 (unknown origin) binding to GST-tagged NES PKI assessed as CRM1/NES band ratio incubated for 1.5 hrs by Coomassie brilliant blue staining based pull-down assay (reference value: 1.00); design: concentration or dose not given beside the values
[2] = target: T1, Exportin-1; experiment: Inhibition of CRM1 (unknown origin) binding to GST-tagged NES PKI at 100 uM incubated for 1.5 hrs by Coomassie brilliant blue staining based pull-down assay
[3] = target: T1, Exportin-1; experiment: Inhibition of GFP-fused CRM1 cargo nuclear export in human HeLa cells at 200 uM incubated for 4 hrs by confocal microscopic analysis; format: cell-based
[4] = target: T1, Exportin-1; experiment: Inhibition of CRM1 (unknown origin) binding to GST-tagged NES PKI assessed as CRM1/NES band ratio at 20 uM incubated for 1.5 hrs by Coomassie brilliant blue staining based pull-down assay
[5] = tested on: HeLa; experiment: Antiproliferative activity against human HeLa cells assessed as inhibition of cell growth at 20 uM incubated for 72 hrs by SRB assay; format: functional, cell-based
[6] = target: T1, Exportin-1; experiment: Inhibition of CRM1 cargo nuclear export in human MCF7 cells at 50 uM incubated for 4 hrs by confocal microscopic analysis; format: cell-based

T1 sequence (O14980 whole entry): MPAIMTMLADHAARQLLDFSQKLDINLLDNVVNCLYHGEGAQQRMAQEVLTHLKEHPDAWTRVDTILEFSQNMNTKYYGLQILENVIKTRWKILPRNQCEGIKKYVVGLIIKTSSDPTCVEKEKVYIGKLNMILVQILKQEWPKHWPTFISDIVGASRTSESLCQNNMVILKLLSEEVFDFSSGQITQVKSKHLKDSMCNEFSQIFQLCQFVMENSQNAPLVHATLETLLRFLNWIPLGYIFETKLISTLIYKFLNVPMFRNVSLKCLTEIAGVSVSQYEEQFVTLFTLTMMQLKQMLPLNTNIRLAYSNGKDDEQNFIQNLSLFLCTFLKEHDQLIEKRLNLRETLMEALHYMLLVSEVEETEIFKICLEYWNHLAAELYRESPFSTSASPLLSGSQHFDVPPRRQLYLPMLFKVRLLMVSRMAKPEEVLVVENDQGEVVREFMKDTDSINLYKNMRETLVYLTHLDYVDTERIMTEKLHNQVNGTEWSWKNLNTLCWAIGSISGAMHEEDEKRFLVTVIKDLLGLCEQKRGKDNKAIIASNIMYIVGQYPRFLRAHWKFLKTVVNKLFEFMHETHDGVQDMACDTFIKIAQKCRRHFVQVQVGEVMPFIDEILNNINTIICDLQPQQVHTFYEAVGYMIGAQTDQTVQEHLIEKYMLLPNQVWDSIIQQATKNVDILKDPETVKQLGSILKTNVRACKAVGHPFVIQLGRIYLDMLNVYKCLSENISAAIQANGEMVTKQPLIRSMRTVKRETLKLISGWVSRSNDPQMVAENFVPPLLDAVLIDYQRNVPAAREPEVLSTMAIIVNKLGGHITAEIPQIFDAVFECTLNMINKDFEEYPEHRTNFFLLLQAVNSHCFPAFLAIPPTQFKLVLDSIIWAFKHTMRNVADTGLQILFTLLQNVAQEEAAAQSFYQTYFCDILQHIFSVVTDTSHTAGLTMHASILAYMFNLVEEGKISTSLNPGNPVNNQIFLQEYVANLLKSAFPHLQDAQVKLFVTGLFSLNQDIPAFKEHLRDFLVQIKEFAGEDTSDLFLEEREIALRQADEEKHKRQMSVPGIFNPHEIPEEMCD

Ratio [1]: 0.76
SMILES: Cc1cccc(C(=O)Nc2cc(C(=O)O)ccc2N2CCN(c3cccc(C)c3)C(C)C2)c1 (centres undefined)

Ratio [1]: 0.84
SMILES: Cc1cccc(S(=O)(=O)Nc2cc(C(=O)O)ccc2N2CCN(c3ccc(F)cc3)CC2)c1

Ratio [1]: 0.28 | inhibition [2]: Active | inhibition [3]: inactive
SMILES: O=C(O)c1ccc(N2CCN(c3cccc(C(F)(F)F)c3)CC2)c(NC(=O)c2ccc(F)cc2)c1

Ratio [1]: 0.85
SMILES: O=C(O)c1ccc(N2CCN(c3ccc(F)cc3)CC2)c(NS(=O)(=O)c2cccc(F)c2)c1

Ratio [4]: 0.26
SMILES: Cc1ccc(Cl)cc1N1CCN(c2ccc(C(=O)O)cc2NC(=O)c2ccc(Cl)cc2)CC1
Activity [5]: Active

inhibition [2]: inactive
SMILES: COC(=O)c1ccc(N2CCN(c3cc(Cl)ccc3C)CC2)c(NC(=O)c2ccc(Cl)cc2)c1

inhibition [2]: inactive
SMILES: COC(=O)c1ccc(N2CCN(c3cc(Cl)ccc3C)CC2)c(NC(=O)c2ccc(C(F)(F)F)cc2)c1

Ratio [1]: 0.91
SMILES: O=C(O)c1ccc(N2CCC(N3CCCCC3)CC2)c(NC(=O)c2cccc(Cl)c2)c1

inhibition [2]: inactive
SMILES: COC(=O)c1ccc(N2CCN(c3cc(C(F)(F)F)ccc3C)CC2)c(NC(=O)c2ccc(Cl)cc2)c1

Ratio [4]: 0.29
SMILES: O=C(O)c1ccc(N2CCN(c3cccc(C(F)(F)F)c3)CC2)c(NC(=O)c2ccc(Br)cc2)c1
Activity [5]: Active

Ratio [1]: 1.24
SMILES: O=C(O)c1ccc(N2CCN(c3ccc(F)cc3)CC2)c(NC(=O)c2ccc(Br)cc2)c1

Ratio [4]: 0.28
SMILES: O=C(O)c1ccc(N2CCN(c3ccccc3C(F)(F)F)CC2)c(NC(=O)c2ccc(Br)cc2)c1
Activity [5]: Active

inhibition [2]: inactive | inhibition [6]: inactive
SMILES: COC(=O)c1ccc(N2CCN(c3cc(C(F)(F)F)ccc3C(F)(F)F)CC2)c(NC(=O)c2ccc(Cl)cc2)c1

Ratio [1]: 0.18 | inhibition [3]: inactive
SMILES: Cc1ccc(Cl)cc1N1CCN(c2ccc(C(=O)O)cc2NC(=O)c2ccc(F)cc2)CC1

Ratio [1]: 0.81
SMILES: Cc1cccc(N2CCN(c3ccc(C(=O)O)cc3NC(=O)c3ccccc3)CC2C)c1 (centres undefined)

Ratio [1]: 0.83
SMILES: O=C(O)c1ccc(N2CCC(N3CCCCC3)CC2)c(NC(=O)c2ccc(F)cc2)c1

Ratio [1]: 1.09
SMILES: Cc1ccc(C)c(N2CCN(c3ccc(C(=O)O)cc3NC(=O)c3ccccc3C)CC2)c1

inhibition [2]: inactive
SMILES: COC(=O)c1ccc(N2CCN(c3cc(Cl)ccc3C)CC2)c(NC(=O)c2ccc(Br)cc2)c1

Ratio [1]: 1.15
SMILES: O=C(O)c1ccc(N2CCN(c3ccc(F)cc3)CC2)c(NC(=O)c2ccc(F)cc2)c1

Ratio [1]: 0.82
SMILES: Cc1ccc(C)c(N2CCN(c3ccc(C(=O)O)cc3NC(=O)c3ccc(F)cc3)CC2)c1

Ratio [1]: 0.88
SMILES: O=C(O)c1ccc(N2CCN(C3CCCCC3)CC2)c(NC(=O)c2ccc(F)cc2)c1

inhibition [2]: inactive
SMILES: COC(=O)c1ccc(N2CCN(c3cccc(C(F)(F)F)c3)CC2)c(NC(=O)c2ccc(Br)cc2)c1

Ratio [1]: 0.89
SMILES: O=C(O)c1ccc(N2CCN(c3cccc(F)c3)CC2)c(NC(=O)c2ccc(Cl)cc2)c1

Ratio [4]: 0.35
SMILES: Cc1ccc(Cl)cc1N1CCN(c2ccc(C(=O)O)cc2NC(=O)c2ccc(C(F)(F)F)cc2)CC1
Activity [5]: Active

Ratio [1]: 0.96
SMILES: Cc1ccc(C)c(S(=O)(=O)Nc2cc(C(=O)O)ccc2N2CCN(c3ccc(F)cc3)CC2)c1

Ratio [1]: 0.81
SMILES: Cc1cccc(C(=O)Nc2cc(C(=O)O)ccc2N2CCC(CCN3CCCCC3)CC2)c1

Ratio [1]: 0.88
SMILES: COc1ccccc1N1CCN(c2ccc(C(=O)O)cc2NC(=O)c2ccc(Cl)cc2)CC1

Ratio [4]: 0.32
SMILES: O=C(O)c1ccc(N2CCN(c3cc(Cl)ccc3Cl)CC2)c(NC(=O)c2ccc(Cl)cc2)c1
Activity [5]: Active

inhibition [2]: inactive
SMILES: COC(=O)c1ccc(N2CCN(c3ccccc3C(F)(F)F)CC2)c(NC(=O)c2ccc(Br)cc2)c1

inhibition [2]: inactive
SMILES: COC(=O)c1ccc(N2CCN(c3cc(Cl)ccc3Cl)CC2)c(NC(=O)c2ccc(Cl)cc2)c1

Ratio [1]: 0.8
SMILES: O=C(O)c1ccc(N2CCCN(c3ccc(Cl)nn3)CC2)c(NC(=O)c2ccccc2)c1

inhibition [2]: inactive
SMILES: COC(=O)c1ccc(N2CCN(c3cc(C(F)(F)F)ccc3Cl)CC2)c(NC(=O)c2ccc(Br)cc2)c1

Ratio [1]: 0.68
SMILES: O=C(O)c1ccc(N2CCN(c3ccccc3F)CC2)c(NC(=O)c2ccc(Br)cc2)c1

Ratio [1]: 0.87
SMILES: Cc1cccc(N2CCN(c3ccc(C(=O)O)cc3NC(=O)c3ccc(F)cc3)CC2C)c1 (centres undefined)

Ratio [1]: 1.13
SMILES: Cc1cccc(C(=O)Nc2cc(C(=O)O)ccc2N2CCN(c3ccccc3F)CC2)c1

inhibition [2]: inactive
SMILES: COC(=O)c1ccc(N2CCN(c3cc(Cl)ccc3OC)CC2)c(NC(=O)c2ccc(Cl)cc2)c1

Ratio [1]: 1.08
SMILES: O=C(O)c1ccc(N2CCN(CC(=O)N3CCCC3)CC2)c(NC(=O)c2ccccc2)c1

Ratio [1]: 0.72
SMILES: O=C(O)c1ccc(N2CCN(Cc3cccc(F)c3)CC2)c(NC(=O)c2ccccc2)c1

Ratio [1]: 0.85
SMILES: O=C(O)c1ccc(N2CCN(c3ccccn3)CC2)c(NC(=O)c2ccc(Cl)cc2)c1

Ratio [1]: 0.43 | inhibition [3]: inactive
SMILES: O=C(O)c1ccc(N2CCN(c3cccc(Cl)c3)CC2)c(NS(=O)(=O)c2cccc(F)c2)c1

Ratio [1]: 0.81
SMILES: Cc1cccc(C(=O)Nc2cc(C(=O)O)ccc2N2CCC(N3CCCCC3)CC2)c1

Ratio [4]: 0.85
SMILES: COc1ccc(Cl)cc1N1CCN(c2ccc(C(=O)O)cc2NC(=O)c2ccc(Cl)cc2)CC1
Activity [5]: Active

Ratio [1]: 0.72
SMILES: O=C(O)c1ccc(N2CCN(c3ccccn3)CC2)c(NC(=O)c2cccc(Cl)c2)c1

Ratio [1]: 1.07
SMILES: Cc1cccc(S(=O)(=O)Nc2cc(C(=O)O)ccc2N2CCN(c3ccc(Cl)cc3)CC2)c1

Ratio [4]: 0.15
SMILES: O=C(O)c1ccc(N2CCN(c3cc(C(F)(F)F)ccc3Cl)CC2)c(NC(=O)c2ccc(Br)cc2)c1
Activity [5]: Active

inhibition [2]: inactive
SMILES: COC(=O)c1ccc(N2CCN(c3cc(C)ccc3C)CC2)c(NC(=O)c2ccc(Cl)cc2)c1

Ratio [4]: 0.2
SMILES: Cc1ccc(C(F)(F)F)cc1N1CCN(c2ccc(C(=O)O)cc2NC(=O)c2ccc(Cl)cc2)CC1
Activity [5]: Active

Ratio [1]: 0.95
SMILES: Cc1ccc(C)c(S(=O)(=O)Nc2cc(C(=O)O)ccc2N2CCN(c3ccccc3F)CC2)c1

Ratio [1]: 0.83
SMILES: O=C(O)c1ccc(N2CCN(c3ccc(F)cc3)CC2)c(NS(=O)(=O)c2cc(F)ccc2F)c1

Ratio [4]: 0.24
SMILES: Cc1ccc(Cl)cc1N1CCN(c2ccc(C(=O)O)cc2NC(=O)c2ccc(Br)cc2)CC1
Activity [5]: Active

inhibition [2]: inactive | inhibition [6]: inactive
SMILES: COC(=O)c1ccc(N2CCN(c3cc(C(F)(F)F)ccc3C(F)(F)F)CC2)c(NC(=O)c2ccc(Br)cc2)c1

inhibition [2]: inactive | inhibition [6]: inactive
SMILES: COC(=O)c1ccc(N2CCN(c3cc(C(F)(F)F)cc(C(F)(F)F)c3)CC2)c(NC(=O)c2ccc(Br)cc2)c1

Ratio [1]: 0.88
SMILES: O=C(O)c1ccc(N2CCN(c3ccc(F)cc3)CC2)c(NS(=O)(=O)c2ccc(F)c(F)c2)c1
